Values joined by “and” are separate entries in the source; they are usually repeats but may differ in a detail not shown here. Identical values can stand only once.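 A five-concentration, 48-hour dose response in 96-well plates underlies each endpoint, interpolated linearly between surrounding concentrations. GI50: concentration for 50% inhibition of growth. TGI: total growth inhibition.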

Test systems include CAKI-1 renal; DU-145 prostate; HOP-92 NSCLC; NCI-H23 lung; SF-268 CNS; SK-MEL-28 melanoma; SK-MEL-5 melanoma; SNB-75 CNS; TK-10 renal; UACC-257 melanoma.
What all share (assay): growth of human tumour cells (NCI), 48 h

As to `COc1cc(/C=C2\N=C(c3ccccc3)N(c3ccc(C(=O)c4ccccc4)cc3N3C(=O)/C(=C/c4cc(OC)c(OC)c(OC)c4)N=C3c3ccccc3)C2=O)cc(OC)c1OC`, the TGI in the experiment on CAKI-1 renal is over 100 µM; in the experiment on DU-145 prostate, 40.3 µM; with HOP-92 NSCLC, over 100 µM; in the experiment with NCI-H23 lung, 41.6 µM; in the experiment on SF-268 CNS it was over 100 µM; in the experiment on SK-MEL-28 melanoma it was 65.8 µM. Also, the TGI in the experiment with SK-MEL-5 melanoma is 21.2 µM; in the experiment with SNB-75 CNS, 35.6 µM; in the experiment with TK-10 renal it was 42.3 µM; with UACC-257 melanoma, 33.4 µM.
Turning to `COC(=O)C1CC(C=O)=C(SC)N1` (stereo not given), the TGI in the experiment with CAKI-1 renal, in the experiment on DU-145 prostate, with HOP-92 NSCLC, in the experiment on NCI-H23 lung, in the experiment with SF-268 CNS and with SK-MEL-28 melanoma was over 50 µM throughout. Also, the TGI with SK-MEL-5 melanoma, in the experiment on SNB-75 CNS, in the experiment with TK-10 renal and with UACC-257 melanoma was over 50 µM throughout.
Take `CCOC(=O)C1C2C1C1C(C(=O)OCC)C21` (stereo not given): the TGI in the experiment with CAKI-1 renal, in the experiment with DU-145 prostate, in the experiment on HOP-92 NSCLC, with NCI-H23 lung, in the experiment on SF-268 CNS and in the experiment on SK-MEL-28 melanoma was over 100 µM each time. Also, the TGI with SK-MEL-5 melanoma, in the experiment on SNB-75 CNS, in the experiment with TK-10 renal and with UACC-257 melanoma was over 100 µM in each case.
For the compound `Cc1nc2ccccc2n1CCc1nc2ccccc2[nH]1`, the TGI with CAKI-1 renal, in the experiment on DU-145 prostate, in the experiment with HOP-92 NSCLC, with NCI-H23 lung, with SF-268 CNS and with SK-MEL-28 melanoma was over 100 µM in each case. In addition, the TGI in the experiment on SK-MEL-5 melanoma, in the experiment on SNB-75 CNS, in the experiment on TK-10 renal and in the experiment with UACC-257 melanoma was over 100 µM each time.
On to `Cc1cc(=O)[nH]c(S(=O)(=O)NC(=S)Nc2ccc(Br)cc2)n1`, for which the TGI in the experiment with CAKI-1 renal, in the experiment on DU-145 prostate, in the experiment on HOP-92 NSCLC, in the experiment with NCI-H23 lung, in the experiment with SF-268 CNS and in the experiment on SK-MEL-28 melanoma was over 100 µM in each case. For the same compound, the TGI in the experiment with SK-MEL-5 melanoma, in the experiment with SNB-75 CNS, with TK-10 renal and with UACC-257 melanoma was over 100 µM throughout.
Consider `CCCS(=O)OC1C(C2COC(C)(C)O2)OC2OC(C)(C)OC21` (stereo not given), for which the TGI in the experiment on CAKI-1 renal turned out to be 28 µM; in the experiment with DU-145 prostate, 47.3 µM; with HOP-92 NSCLC, 22.8 µM; with NCI-H23 lung, 23.4 µM; in the experiment on SF-268 CNS, 62.4 µM; with SK-MEL-28 melanoma it was 32.7 µM. Moreover, the TGI with SK-MEL-5 melanoma was 27.7 µM; in the experiment on SNB-75 CNS it was over 48.8 µM; in the experiment with TK-10 renal, 31.3 µM; with UACC-257 melanoma it was 28.2 µM.
Regarding `COc1cc(/C=C/C=C2\CC(C)C/C(=C\C=C\c3ccc(O)c(OC)c3)C2=O)ccc1O` (stereo not given), the TGI in the experiment on CAKI-1 renal is 33.2 µM; in the experiment with DU-145 prostate, over 100 µM; in the experiment with HOP-92 NSCLC it was 23.4 µM; with NCI-H23 lung, 40.2 µM; in the experiment on SF-268 CNS it was over 100 µM; in the experiment with SK-MEL-28 melanoma it was 45.5 µM. For the same compound, the TGI in the experiment with SK-MEL-5 melanoma is 37.6 µM; with SNB-75 CNS, 32.3 µM; with TK-10 renal, 16 µM; in the experiment with UACC-257 melanoma it was 89.7 µM.
Turning to `Cc1nc(-c2ccc(Cl)cc2)cn2c1nc1ccccc12`, the TGI in the experiment on CAKI-1 renal, in the experiment on DU-145 prostate, in the experiment on HOP-92 NSCLC, in the experiment on NCI-H23 lung, in the experiment with SF-268 CNS and in the experiment on SK-MEL-28 melanoma was over 100 µM throughout. Further, the TGI with SK-MEL-5 melanoma, in the experiment on SNB-75 CNS, in the experiment with TK-10 renal and with UACC-257 melanoma was over 100 µM in each case.
For `O=[N+]([O-])c1ccc(-c2nc3ccccc3o2)cc1`, the TGI in the experiment with CAKI-1 renal, with DU-145 prostate, with HOP-92 NSCLC, with NCI-H23 lung, in the experiment with SF-268 CNS and in the experiment with SK-MEL-28 melanoma was over 100 µM throughout. Besides, the TGI in the experiment with SK-MEL-5 melanoma, in the experiment with SNB-75 CNS, in the experiment with TK-10 renal and in the experiment on UACC-257 melanoma was over 100 µM in each case.
With `CCSc1nn(-c2c3ccccc3nc3ccccc23)c(=S)s1`, the TGI in the experiment with CAKI-1 renal, in the experiment on DU-145 prostate, with HOP-92 NSCLC, in the experiment with NCI-H23 lung, with SF-268 CNS and in the experiment on SK-MEL-28 melanoma was over 100 µM each time. Moreover, the TGI in the experiment on SK-MEL-5 melanoma, in the experiment with SNB-75 CNS, in the experiment with TK-10 renal and with UACC-257 melanoma was over 100 µM each time.
Consider `CC[N+]1(C)CCC(O)(/C=C/c2ccc(Cl)c(Cl)c2)C(C(=O)/C=C/c2ccc(Cl)c(Cl)c2)C1` (stereo not given), for which the TGI with CAKI-1 renal was found to be 12.7 µM; with DU-145 prostate it was 6.87 µM; with HOP-92 NSCLC, 7.82 µM; in the experiment with NCI-H23 lung, 7.03 µM; with SF-268 CNS, 8.54 µM; in the experiment on SK-MEL-28 melanoma it was 4.37 µM. For the same compound, the TGI came out at 7.68 µM with SK-MEL-5 melanoma, 12.2 µM in the experiment with SNB-75 CNS, 6.58 µM in the experiment with TK-10 renal and 5.96 µM in the experiment with UACC-257 melanoma.
Take `CN(CCc1ccccn1)C(=S)N/N=C/c1ccccn1`: the TGI in the experiment with CAKI-1 renal is 17.2 µM; with DU-145 prostate it was over 100 µM; with HOP-92 NSCLC, 3.66 µM; in the experiment with NCI-H23 lung, 13.8 µM; in the experiment with SF-268 CNS it was over 100 µM; in the experiment on SK-MEL-28 melanoma, over 100 µM. The TGI in the experiment on SK-MEL-5 melanoma was 0.902 µM; with SNB-75 CNS, over 100 µM; in the experiment on TK-10 renal, 0.668 µM; in the experiment on UACC-257 melanoma, 0.895 µM.
As for `C1CN(C23OC4(N5CCOCC5)C5C6CC(C7C6C4C72)C53)CCO1` (stereo not given), the TGI with CAKI-1 renal, with DU-145 prostate, with HOP-92 NSCLC, in the experiment on NCI-H23 lung, in the experiment with SF-268 CNS and in the experiment on SK-MEL-28 melanoma was over 100 µM throughout. Also, the TGI in the experiment on SK-MEL-5 melanoma, in the experiment with SNB-75 CNS, in the experiment on TK-10 renal and in the experiment on UACC-257 melanoma was over 100 µM in each case.
With `NCCCN1CCN(CCCNc2ccc3ncn4c5ccccc5c(=O)c2c34)CC1`, the TGI is 9.02 µM with CAKI-1 renal; 8.2 µM in the experiment with DU-145 prostate; over 25 µM in the experiment with HOP-92 NSCLC; 6.98 µM with NCI-H23 lung; 6.04 µM with SF-268 CNS; 19.6 µM with SK-MEL-28 melanoma. Besides, the TGI was 4.38 µM with SK-MEL-5 melanoma, 8.71 µM in the experiment with SNB-75 CNS, over 25 µM in the experiment with TK-10 renal and 19.1 µM in the experiment on UACC-257 melanoma.
With `CC1(C)CN=C(c2ccc3ccccc3c2O)N1`, the TGI in the experiment with CAKI-1 renal, in the experiment on DU-145 prostate, in the experiment on HOP-92 NSCLC, in the experiment with NCI-H23 lung, in the experiment with SF-268 CNS and with SK-MEL-28 melanoma was over 100 µM each time. The TGI with SK-MEL-5 melanoma, in the experiment with SNB-75 CNS, with TK-10 renal and in the experiment with UACC-257 melanoma was over 100 µM each time.
Turning to `O=C1C(=O)C(CCCO)(CCCO)CCCCCCCCC1(CCCO)CCCO`, the TGI in the experiment on CAKI-1 renal, in the experiment on DU-145 prostate, in the experiment on HOP-92 NSCLC, in the experiment with NCI-H23 lung, with SF-268 CNS and in the experiment on SK-MEL-28 melanoma was over 100 µM in each case. For the same compound, the TGI in the experiment on SK-MEL-5 melanoma, in the experiment on SNB-75 CNS, in the experiment on TK-10 renal and in the experiment on UACC-257 melanoma was over 100 µM throughout.
For the compound `COc1ccc(C2=C(N)c3ccccc3C2=O)cc1`, the TGI with CAKI-1 renal, with DU-145 prostate, in the experiment on HOP-92 NSCLC, with NCI-H23 lung, with SF-268 CNS and in the experiment with SK-MEL-28 melanoma was over 100 µM throughout. The TGI in the experiment with SK-MEL-5 melanoma was over 100 µM; in the experiment on SNB-75 CNS it was 78.7 µM; with TK-10 renal, over 100 µM; in the experiment with UACC-257 melanoma, over 100 µM.
As to `Nc1ncnc2c(C3OC(CO)C(O)C3O)c[nH]c12` (stereo not given), the TGI was 0.402 µM in the experiment on CAKI-1 renal; 0.113 µM with DU-145 prostate; 0.00836 µM and 0.0664 µM with HOP-92 NSCLC; 0.0792 µM and 0.0756 µM with NCI-H23 lung; 0.559 µM with SF-268 CNS; 0.51 µM and 0.734 µM in the experiment on SK-MEL-28 melanoma. The TGI in the experiment on SNB-75 CNS is 0.0984 µM and 0.459 µM; with TK-10 renal it was 0.471 µM; in the experiment on UACC-257 melanoma, 0.276 µM and 0.382 µM. Besides, the GI50 with HOP-92 NSCLC is 0.00215 µM; with NCI-H23 lung, under 0.0104 µM; with SK-MEL-28 melanoma, 0.0452 µM; with SK-MEL-5 melanoma, 0.0187 µM; with TK-10 renal it was 0.0163 µM; with UACC-257 melanoma, under 0.0155 µM.
In the case of `Clc1cccc(Cl)c1C1ON=C(c2ccccc2)N1C12CC3CC(CC(C3)C1)C2` (stereo not given), the TGI was over 100 µM in the experiment on CAKI-1 renal; over 100 µM with DU-145 prostate; 75.3 µM with HOP-92 NSCLC; over 100 µM in the experiment on NCI-H23 lung; over 100 µM in the experiment on SF-268 CNS; over 100 µM in the experiment on SK-MEL-28 melanoma. Further, the TGI in the experiment on SK-MEL-5 melanoma is 12.1 µM; in the experiment with SNB-75 CNS it was 18.3 µM; in the experiment with TK-10 renal it was over 100 µM; with UACC-257 melanoma, 15.1 µM.
For `CC(CN(C)C)C(O)(c1ccccc1)c1ccccc1` (stereo not given), the TGI in the experiment on CAKI-1 renal, in the experiment with DU-145 prostate, in the experiment with HOP-92 NSCLC, in the experiment on NCI-H23 lung, in the experiment with SF-268 CNS and with SK-MEL-28 melanoma was over 100 µM each time. In addition, the TGI with SK-MEL-5 melanoma, in the experiment on SNB-75 CNS, with TK-10 renal and in the experiment on UACC-257 melanoma was over 100 µM throughout.

These data come from PubChem BioAssay (NCI).
